Legend:
T98G = experiment: Cell proliferation assay; assay type: cell-based, Homo sapiens; conditions: brain, glioblastoma, 72 hours
Procedure: (§1) To quantify cell proliferation, either the nuclei of live cells were counted following staining with 4’,6-diamidino-2-phenylindole (DAPI; Sigma-Aldrich, Burlington, MA, USA), or metabolically active cells were detected using a CellTiter-Glo assay (Promega Corporation, Madison, WI, USA). Cells from a range of human and mammalian tumor cell lines (American Type Culture Collection, Manassas, VA, USA) were seeded at 4000 cells per well in 100 μL of culture medium in a 96-well plate and incubated overnight at 37°C with 5% CO2. […] In the DAPI staining method, cells were washed using 1× phosphate-buffered saline (PBS; Gibco Thermo Fisher Scientific, Waltham, MA, USA), fixed with 4% formaldehyde, permeabilized with 0.2% Triton X-100 (Sigma-Aldrich), washed again, and stained with 1 μg/mL DAPI to visualize cell nuclei. Cells were washed with 1× PBS three times, and 100 μL 1× PBS was added to each well. Plates were scanned using an IN Cell Analyzer 2200 (GE Healthcare Life Sciences, Chicago, IL, USA) and the number of cells per well was recorded. In the CellTiter-Glo assay, 60 μL of CellTiter-Glo luminescent solution was added to each well after incubation with the test compounds, and the assay plate was scanned using a Tecan Infinite M1000 PRO microplate reader (Tecan Group AG, Männedorf, Switzerland) to record luminescent signals.

NCI-H441 = experiment: Cell proliferation assay; assay type: cell-based, Homo sapiens; conditions: NCI-H441, lung carcinoma, 72 hours
Procedure: as §1

MCF-10A = experiment: Cell proliferation assay; assay type: cell-based, Homo sapiens; conditions: breast, non-malignant mammary epithelial, 72 hours
Procedure: as §1

Huh-1 = experiment: Cell proliferation assay; assay type: cell-based, Homo sapiens; conditions: Huh-1, liver, hepatocellular carcinoma, 72 hours
Procedure: as §1

KNS-81 = experiment: Cell proliferation assay; assay type: cell-based, Homo sapiens; conditions: KNS-81, brain, glioblastoma, 72 hours
Procedure: as §1

HT29 = experiment: Cell proliferation assay; assay type: cell-based, Homo sapiens; conditions: HT29, colon carcinoma, 72 hours
Procedure: as §1

SW948 = experiment: Cell proliferation assay; assay type: cell-based, Homo sapiens; conditions: SW948, colon carcinoma, 72 hours
Procedure: as §1

SW1088 = experiment: Cell proliferation assay; assay type: cell-based, Homo sapiens; conditions: SW1088, brain, grade II astrocytoma, 72 hours
Procedure: as §1

SK-N-SH = experiment: Cell proliferation assay; assay type: cell-based, Homo sapiens; conditions: brain, neuroblastoma, 72 hours
Procedure: as §1

HL7702 = experiment: Cell proliferation assay; assay type: cell-based, Homo sapiens; conditions: HL7702, liver, 72 hours
Procedure: as §1

HLE = experiment: Cell proliferation assay; assay type: cell-based, Homo sapiens; conditions: liver, hepatocellular carcinoma, 72 hours
Procedure: as §1

HTC116 = experiment: Cell proliferation assay; assay type: cell-based, Homo sapiens; conditions: HTC116, colorectal carcinoma, 72 hours
Procedure: as §1

SNU-182 = experiment: Cell proliferation assay; assay type: cell-based, Homo sapiens; conditions: SNU-182, liver, hepatocellular carcinoma, 72 hours
Procedure: as §1

COLO 205 [1] = experiment: Cell proliferation assay; assay type: cell-based, Homo sapiens; conditions: COLO 205, colon carcinoma, 72 hours
Procedure: as §1

MCF-7 = experiment: Cell proliferation assay; assay type: cell-based, Homo sapiens; conditions: MCF-7, breast carcinoma, 72 hours
Procedure: as §1

SNU-761 = experiment: Cell proliferation assay; assay type: cell-based, Homo sapiens; conditions: SNU-761, lung carcinoma, 72 hours
Procedure: as §1

A172 = experiment: Cell proliferation assay; assay type: cell-based, Homo sapiens; conditions: A172, brain, glioblastoma, 72 hours
Procedure: as §1

NCI-H23 = experiment: Cell proliferation assay; assay type: cell-based, Homo sapiens; conditions: NCI-H23, lung, NSCLC, 72 hours
Procedure: as §1

HCT15 = experiment: Cell proliferation assay; assay type: cell-based, Homo sapiens; conditions: HCT15, colorectal carcinoma, 72 hours
Procedure: as §1

NCI-H520 = experiment: Cell proliferation assay; assay type: cell-based, Homo sapiens; conditions: NCI-H520, lung carcinoma, 72 hours
Procedure: as §1

BN2289 = experiment: Subcutaneous BN2289 glioblastoma xenograft; assay type: in vivo, BALB/c nude mice; conditions: 28 days, measured day 21
Procedure: (§2) The efficacy of GLR2007 was evaluated in human GBM and breast cancer orthotopic cell-line-derived xenografts in NOD/SCID mice (Shanghai Lingchang Biotechnology Co. Ltd, Shanghai, China) and BALB/c nude mice (Shanghai Sino-British SIPPR/BK Laboratory Animal Co. Ltd, Shanghai, China), and human lung, colorectal, and liver cancer subcutaneous cell-line-derived xenografts in BALB/c nude mice (Nanjing University National Resource Center, Nanjing, China, or Beijing Anikeeper Biotech Co., Beijing, China). Mice were maintained in humidity- and temperature-controlled conditions with food and water available ad libitum. For subcutaneous models, female BALB/c nude mice were inoculated at 4–8 weeks old with 3×10^6–1×10^7 tumor cells (see Table 1 for xenograft model cell types) in the right flank for tumor development. Randomization was performed when the mean tumor volume reached 118–171 mm^3.

4T1 = experiment: Cell proliferation assay; assay type: cell-based, Mus musculus; conditions: 4T1, breast carcinoma, 72 hours
Procedure: as §1

H22 = experiment: Cell proliferation assay; assay type: cell-based, Mus musculus; conditions: H22, liver, hepatocellular carcinoma, 72 hours
Procedure: as §1

BNL CL.2 = experiment: Cell proliferation assay; assay type: cell-based, Mus musculus; conditions: BNL CL.2, liver, normal, 72 hours
Procedure: as §1

Glioma 261 = experiment: Cell proliferation assay; assay type: cell-based, Mus musculus; conditions: Glioma 261, brain, murine glioma, 72 hours
Procedure: as §1

Hepa1-6 = experiment: Cell proliferation assay; assay type: cell-based, Mus musculus; conditions: Hepa1-6, liver, hepatocellular carcinoma, 72 hours
Procedure: as §1

Colon-26 = experiment: Cell proliferation assay; assay type: cell-based, Mus musculus; conditions: Colon-26, colorectal carcinoma, 72 hours
Procedure: as §1

LI1088 = experiment: Subcutaneous LI1088 liver cancer xenograft; assay type: in vivo, BALB/c nude mice; conditions: 25 mg/kg daily oral, 28 days, measured day 25
Procedure: as §2

COLO 205 [2] = experiment: Subcutaneous COLO 205 colorectal cancer xenograft; assay type: in vivo, BALB/c nude mice; conditions: 26 days, measured day 25
Procedure: as §2

`CCN1CCN(Cc2ccc(Nc3ncc(F)c(-c4cc(F)c5nc(C)n(C(C)C)c5c4)n3)nc2)CC1` [Abemaciclib, abemaciclib, reference compound] showed an IC50 (T98G; Homo sapiens) of 168 nM, an IC50 (NCI-H441; Homo sapiens) of 40 nM and an IC50 (MCF-10A; Homo sapiens) of 1770 nM. It also gave an IC50 (Huh-1; Homo sapiens) of 365 nM, an IC50 (KNS-81; Homo sapiens) of 106 nM and an IC50 (HT29; Homo sapiens, HT-29) of 1840 nM. It also gave an IC50 (SW948; Homo sapiens) of 586 nM, an IC50 (SW1088; Homo sapiens) of 471 nM and an IC50 (SK-N-SH; Homo sapiens) of 80 nM. The IC50 (HL7702; Homo sapiens, L02) was 1720 nM, the IC50 (HLE; Homo sapiens) was 389 nM and the IC50 (HTC116; Homo sapiens) was 76 nM. It also gave an IC50 (SNU-182; Homo sapiens) of over 10000 nM, an IC50 (COLO 205 [1]; Homo sapiens) of 432 nM and an IC50 (MCF-7; Homo sapiens, MCF7) of 6 nM. The IC50 (SNU-761; Homo sapiens) was 54 nM, the IC50 (A172; Homo sapiens, A 172) was 112 nM and the IC50 (NCI-H23; Homo sapiens) was 904 nM. For the same compound, the IC50 (HCT15; Homo sapiens, HCT-15) was 294 nM, the IC50 (NCI-H520; Homo sapiens) was 364 nM and the “TGI (%)” value (BN2289; 25 mg/kg daily oral) was 24.9%. For the same compound, the IC50 (4T1; Mus musculus) was 4790 nM, the IC50 (H22; Mus musculus) was 3580 nM and the IC50 (BNL CL.2; Mus musculus) was 10000 nM. It also gave an IC50 (Glioma 261; Mus musculus) of 2520 nM, an IC50 (Hepa1-6; Mus musculus) of 1270 nM and an IC50 (Colon-26; Mus musculus) of over 10000 nM. The “TGI (%)” value (LI1088) was 22.4% and the “TGI (%)” value (COLO 205 [2]; 25 mg/kg daily oral) was 57.7%.

Compound `CC1=Nc2c(F)cc(-c3nc(Nc4ccc(C5CCN(C)CC5)cn4)ncc3F)cc2C12CCCC2` [GLR2007] has an IC50 (T98G) of 110 nM, an IC50 (NCI-H441) of 7 nM and an IC50 (MCF-10A) of 2730 nM. It also gave an IC50 (Huh-1) of 261 nM, an IC50 (KNS-81) of 33 nM and an IC50 (HT29) of 601 nM. It also gave an IC50 (SW948) of 189 nM, an IC50 (SW1088) of 143 nM and an IC50 (SK-N-SH) of 32 nM. For the same compound, the IC50 (HL7702) was 1940 nM, the IC50 (HLE) was 143 nM and the IC50 (HTC116) was 38 nM. The IC50 (SNU-182) was 2240 nM, the IC50 (COLO 205 [1]) was 194 nM and the IC50 (MCF-7) was 2 nM. It also gave an IC50 (SNU-761) of 8 nM, an IC50 (A172) of 41 nM and an IC50 (NCI-H23) of 243 nM. The IC50 (HCT15) was 43 nM, the IC50 (NCI-H520) was 241 nM and the “TGI (%)” value (BN2289; 5 mg/kg daily oral) was 4.9%. For the same compound, the “TGI (%)” value (BN2289; 25 mg/kg daily oral) was 39.4%, the “TGI (%)” value (BN2289; 50 mg/kg daily oral) was 56.4% and the IC50 (4T1) was 1940 nM. It also gave an IC50 (H22) of 1840 nM, an IC50 (BNL CL.2) of 1940 nM and an IC50 (Glioma 261) of 1970 nM. For the same compound, the IC50 (Hepa1-6) was 526 nM, the IC50 (Colon-26) was 2120 nM and the “TGI (%)” value (LI1088) was 57.7%. The “TGI (%)” value (COLO 205 [2]; 5 mg/kg daily oral) was 42.6% and the “TGI (%)” value (COLO 205 [2]; 25 mg/kg daily oral) was 72.2%.

Reference: publication PMC9403987 (Frontiers in Oncology, 2022)
